Molecular target: T1, ACIII (alternative complex III) (Rhodothermus marinus, UniProt D0MDD6)
T1 construct: gene Rmar_0223; native multi-subunit membrane complex purified from R. marinus membranes in DDM; ActB Tat signal peptide (74 residues) absent; one further unidentified subunit; with Quinol:cytochrome c oxidoreductase pentaheme cytochrome subunit (alternative complex III subunit ActA); Quinol:cytochrome c oxidoreductase iron-sulfur protein (alternative complex III subunit ActB); Quinol:cytochrome c oxidoreductase membrane protein (alternative complex III subunit ActD); Quinol:cytochrome c oxidoreductase monoheme cytochrome subunit (alternative complex III subunit ActE); Alternative complex III subunit ActG; Hypothetical protein Rmar_1979 (ActH)
Test: isothermal titration calorimetry
Format: binding
Conditions: read-out: log Ka (converted)

A Kd of 316 nM was found for CC1=C(C)C(=O)c2ccccc2C1=O [2,3-dimethyl-1,4-naphthoquinone] in this work.

Reference: PMC5928083, “Structural basis for energy transduction by respiratory alternative complex III” (Nature Communications, 2018)
